Source: US20200255478A1, “NOVEL COMPOUNDS ACTIVATING THE NRF2 PATHWAY” (Almirall, S.A., priority 2017, published 2020)
Starred links: 1 amine or outer side, 2 acyl side, 3 side chain; linkers in the order of their positions; H or OH if unused. Positions of bridges follow the written chain, without caps; N, C: chain ends. Non-standard residues stand in square brackets, D forms with d. Residues, ends and D or L forms follow the SMILES beside them. *: point of attachment. X1 = O=C([C@@H]1C[C@H](N[*:3])CN1[*:1])[*:2]; oXylylene = c1ccc(C[*:2])c(C[*:1])c1; Stearoyl = CCCCCCCCCCCCCCCCCC(=O)*

What follows are compounds tested against Keap1-Maltose Binding Protein (MBP tag) (Homo sapiens, UniProt Q14145) (assay: Nrf2-Keap1 HTRF (TR-FRET) binding assay: displacement of biotinylated ETGE peptide from Keap1-MBP). Conditions: not given.
Chain of Keap1-Maltose Binding Protein (MBP tag) (Q14145 whole entry): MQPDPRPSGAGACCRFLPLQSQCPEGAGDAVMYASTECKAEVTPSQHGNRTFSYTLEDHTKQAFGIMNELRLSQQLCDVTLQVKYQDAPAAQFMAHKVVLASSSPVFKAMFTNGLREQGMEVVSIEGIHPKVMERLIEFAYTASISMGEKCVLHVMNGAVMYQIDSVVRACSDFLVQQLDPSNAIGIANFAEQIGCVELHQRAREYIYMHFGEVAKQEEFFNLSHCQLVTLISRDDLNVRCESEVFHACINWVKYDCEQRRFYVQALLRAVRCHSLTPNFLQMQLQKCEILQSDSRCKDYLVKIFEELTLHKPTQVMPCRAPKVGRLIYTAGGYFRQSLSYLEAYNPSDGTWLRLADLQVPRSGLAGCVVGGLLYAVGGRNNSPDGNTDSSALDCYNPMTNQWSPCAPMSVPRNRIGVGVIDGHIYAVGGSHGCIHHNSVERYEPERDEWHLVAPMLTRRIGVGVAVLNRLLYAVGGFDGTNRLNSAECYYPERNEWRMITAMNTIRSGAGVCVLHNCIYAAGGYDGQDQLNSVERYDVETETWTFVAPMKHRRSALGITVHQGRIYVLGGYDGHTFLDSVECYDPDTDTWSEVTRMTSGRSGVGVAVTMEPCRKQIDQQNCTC

How did the IC50 turn out when `CCCCCCCCCCCCCCCCCC(=O)N[C@H]1C[C@H]2C(=O)N[C@@H](CCC(N)=O)C(=O)N[C@H]3CSCc4ccccc4CSC[C@H](NC(=O)[C@H](CCC(=O)O)NC(=O)CNC(=O)[C@H]([C@@H](C)O)NC(=O)[C@H](CCC(=O)O)NC(=O)[C@@H]4C[C@H](F)CN4C(=O)[C@H](CC(=O)O)NC3=O)C(=O)N[C@@H](CC(C)C)C(=O)N3CCC[C@@H]3C(=O)N2C1` [Example 72, {[&^1Pro((4S)-NH-Stearyl)-Gln-Cys(&^2)-Asp-Pro((4S)-F)-Glu-Thr-Gly-Glu-Cys(&^3)-Leu-D-Pro&^1][&^2(1,2-phenylenediyl)dimethylene&^2]}] was run?
The IC50 was 1 to 100 nM.

How did the IC50 turn out when `CCCCCCCCCCCCCCCCCC(=O)N[C@H]1C[C@H]2C(=O)N[C@@H](CCC(N)=O)C(=O)N[C@H]3CSCc4ccccc4CSC[C@H](NC(=O)[C@H](CCC(=O)O)NC(=O)CNC(=O)[C@H]([C@@H](C)O)NC(=O)[C@H](CCC(=O)O)NC(=O)[C@@H]4C[C@H](N)CN4C(=O)[C@H](CC(=O)O)NC3=O)C(=O)N[C@@H](CC(C)C)C(=O)N3CCC[C@@H]3C(=O)N2C1` [Example 73, {[&^1Pro((4S)-NH-Stearyl)-Gln-Cys(&^2)-Asp-Pro((4S)-NH2)-Glu-Thr-Gly-Glu-Cys(&^3)-Leu-D-Pro&^1][&^2(1,2-phenylenediyl)dimethylene&^3]}] was run?
Its IC50 is 1 to 100 nM.

How did the IC50 turn out when `CCCCCCCCCCCCCCCCCC(=O)N[C@H]1C[C@H]2C(=O)N[C@@H](CCC(N)=O)C(=O)N[C@H]3CSCc4cccc(c4)CSC[C@H](NC(=O)[C@H](CCC(=O)O)NC(=O)CNC(=O)[C@H]([C@@H](C)O)NC(=O)[C@H](CCC(=O)O)NC(=O)[C@@H]4CCCN4C(=O)[C@H](CC(=O)O)NC3=O)C(=O)N[C@@H](CC(C)C)C(=O)N3CCC[C@@H]3C(=O)N2C1` [Example 74, {[&^1Pro((4S)-NH-Stearyl)-Gln-Cys(&^2)-Asp-Pro-Glu-Thr-Gly-Glu-Cys(&^3)-Leu-D-Pro&^1][&^2(1,3-phenylenediyl)dimethylene&^3]}] was run?
Its IC50 is under 1 nM.

`CCCCCCCCCCCCCCCCCC(=O)N[C@H]1C[C@@H](C(=O)N[C@@H](CCC(N)=O)C(=O)N[C@H]2CSCc3ccccc3CSC[C@@H](C(=O)N[C@@H](CC(C)C)C(=O)N3CCC[C@@H]3C(N)=O)NC(=O)[C@H](CCC(=O)O)NC(=O)CNC(=O)[C@H]([C@@H](C)O)NC(=O)[C@H](CCC(=O)O)NC(=O)[C@@H]3CCCN3C(=O)[C@H](CC(=O)O)NC2=O)N(C(C)=O)C1` [Example 75, {[Acetyl-Pro((4S)-NH-Stearyl)-Gln-Cys(&^1)-Asp-Pro-Glu-Thr-Gly-Glu-Cys(&^2)-Leu-D-Pro-NH2][&^1(1,2-phenylenediyl)dimethylene^2]}] was tested. Which IC50 did it give?
The IC50 was 1 to 100 nM.

Which IC50 does the source give for `CCCCCCCCCCCCCCCCCC(=O)N1CCC[C@H]1C(=O)N[C@@H](CCC(N)=O)C(=O)N[C@H]1CSCc2ccccc2CSC[C@@H](C(=O)N[C@@H](CC(C)C)C(=O)N2CCC[C@@H]2C(N)=O)NC(=O)[C@H](CCC(=O)O)NC(=O)CNC(=O)[C@H]([C@@H](C)O)NC(=O)[C@H](CCC(=O)O)NC(=O)[C@@H]2CCCN2C(=O)[C@H](CC(=O)O)NC1=O` [Example 76, {[Stearyl-Pro-Gln-Cys(&^1)-Asp-Pro-Glu-Thr-Gly-Glu-Cys(&^2)-Leu-D-Pro-NH2][&^1(1,2-phenylenediyl)dimethylene^2]}] (Stearoyl-PQCDPETGECL[dP]-NH2; linker 3-10 via oXylylene) here?
Its IC50 is 1 to 100 nM.

How did the IC50 turn out when `CCCCCCCCCCCCCC(=O)N[C@H]1C[C@H]2C(=O)N[C@@H](CCC(N)=O)C(=O)N[C@H]3CSCc4ccccc4CSC[C@H](NC(=O)[C@H](CCC(=O)O)NC(=O)CNC(=O)[C@H]([C@@H](C)O)NC(=O)[C@H](CCC(=O)O)NC(=O)[C@@H]4CCCN4C(=O)[C@H](CC(=O)O)NC3=O)C(=O)N[C@@H](CC(C)C)C(=O)N3CCC[C@@H]3C(=O)N2C1` [Example 80, {[&^1Pro((4S)-NH-Miristoyl)-Gln-Cys(&^2)-Asp-Pro-Glu-Thr-Gly-Glu-Cys(&^3)-Leu-D-Pro&^1][&^2(1,2-phenylenediyl)dimethylene&^3]}] was run?
The IC50 was under 1 nM.

How did the IC50 turn out when `CCCCCCCCCCCCCCCCCC(=O)N[C@H]1C[C@H]2C(=O)N[C@@H](CCC(N)=O)C(=O)N[C@H]3CSCc4ccccc4CSC[C@H](NC(=O)[C@H](CCC(=O)O)NC(=O)CNC(=O)[C@H]([C@@H](C)O)NC(=O)[C@H](CCC(=O)O)NC(=O)[C@@H]4CCCN4C(=O)[C@H](CC(=O)O)NC3=O)C(=O)N[C@@H](CCCCN)C(=O)N3CCC[C@@H]3C(=O)N2C1` [Example 82, {[&^1Pro((4S)-NH-Stearyl)-Gln-Cys(&^2)-Asp-Pro-Glu-Thr-Gly-Glu-Cys(&^3)-Lys-D-Pro&^1][&^2(1,2-phenylenediyl)dimethylene&^3]}] (cyclo(CDPETGECK[dP][X1](Stearoyl)Q); linker 1-8 via oXylylene) was run?
Its IC50 is 1 to 100 nM.

Which IC50 does the source give for `CCCCCCCCCCCCCCCC(=O)N[C@H]1C[C@H]2C(=O)N[C@@H](CCC(N)=O)C(=O)N[C@H]3CSCc4ccccc4CSC[C@H](NC(=O)[C@H](CCC(=O)O)NC(=O)CNC(=O)[C@H]([C@@H](C)O)NC(=O)[C@H](CCC(=O)O)NC(=O)[C@@H]4CCCN4C(=O)[C@H](CC(=O)O)NC3=O)C(=O)N[C@@H](CC(C)C)C(=O)N3CCC[C@@H]3C(=O)N2C1` [Example 83, {[&^1Pro((4S)-NH-Palmitoyl)-Gln-Cys(&^2)-Asp-Pro-Glu-Thr-Gly-Glu-Cys(&^3)-Leu-D-Pro&^1][&^2(1,2-phenylenediyl)dimethylene&^3]}] here?
The IC50 was under 1 nM.

Same assay, conditions: HTRF (TR-FRET); displacement of ETGE-biotin from Keap1-MBP; values banded into grades; read-out: Binding (IC50) ETGE-Keap1

How did the IC50 turn out when `Cc1cc(C)c2c(C)c1CSC[C@@H](C(=O)N[C@@H](CC(C)C)C(=O)N1CCC[C@H]1C(=O)NCCC(=O)N[C@@H](CCCNC(=N)N)C(=O)N[C@@H](CCCCN)C(=O)N[C@@H](CCCCN)C(=O)N[C@@H](CCCNC(=N)N)C(=O)N[C@@H](CCCNC(=N)N)C(=O)N[C@@H](CCC(N)=O)C(=O)N[C@@H](CCCNC(=N)N)C(=O)N[C@@H](CCCNC(=N)N)C(=O)N[C@@H](CCCNC(=N)N)C(N)=O)NC(=O)[C@H](CCC(=O)O)NC(=O)CNC(=O)[C@H]([C@@H](C)O)NC(=O)[C@H](CCC(=O)O)NC(=O)[C@@H]1CCCN1C(=O)[C@H](CC(=O)O)NC(=O)[C@@H](NC(=O)[C@H](CCC(N)=O)NC(=O)[C@@H](N)CC(C)C)CSC2` [Example 67] was run?
The IC50 was 1 to 100 nM.

`CC(C)C[C@H](NC(=O)[C@@H]1CSCc2cc3ccccc3cc2CSC[C@H](NC(=O)[C@H](CCC(N)=O)NC(=O)[C@@H](N)CC(C)C)C(=O)N[C@@H](CC(=O)O)C(=O)N2CCC[C@H]2C(=O)N[C@@H](CCC(=O)O)C(=O)N[C@@H]([C@@H](C)O)C(=O)NCC(=O)N[C@@H](CCC(=O)O)C(=O)N1)C(=O)N1CCC[C@H]1C(=O)NCCC(=O)N[C@@H](CCCNC(=N)N)C(=O)N[C@@H](CCCNC(=N)N)C(=O)N[C@@H](CCCNC(=N)N)C(=O)N[C@@H](CCCNC(=N)N)C(=O)N[C@@H](CCCNC(=N)N)C(=O)N[C@@H](CCCNC(=N)N)C(=O)N[C@@H](CCCNC(=N)N)C(=O)N[C@@H](CCCNC(=N)N)C(N)=O` [Example 68, {[H-Leu-G1n-Cys(&^1)-Asp-Pro-Glu-Thr-G1y-Glu-Cys(&^2)-Leu-Pro-βAla-Arg8-NH2][&^1(naphthalene)2,3-diyldimethylene&^2]}] was tested. Which IC50 did it give?
Its IC50 is 1 to 100 nM.

For `CC(C)C[C@H](NC(=O)[C@@H]1CSCc2cc3ccccc3cc2CSC[C@H](NC(=O)[C@H](CCC(N)=O)NC(=O)[C@@H](N)CC(C)C)C(=O)N[C@@H](CC(=O)O)C(=O)N2CCC[C@H]2C(=O)N[C@@H](CCC(=O)O)C(=O)N[C@@H]([C@@H](C)O)C(=O)NCC(=O)N[C@@H](CCC(=O)O)C(=O)N1)C(=O)N1CCC[C@H]1C(=O)NCCC(=O)N[C@@H](CCCNC(=N)N)C(=O)N[C@@H](CCCNC(=N)N)C(=O)N[C@@H](CCCNC(=N)N)C(=O)N[C@@H](CCCNC(=N)N)C(=O)N[C@@H](CCCNC(=N)N)C(=O)N[C@@H](CCCNC(=N)N)C(=O)N[C@@H](CCCNC(=N)N)C(=O)N[C@@H](CCCNC(=N)N)C(=O)N[C@@H](CCCNC(=N)N)C(=O)N[C@@H](CCCNC(=N)N)C(N)=O` [Example 69, {[H-Leu-G1n-Cys(&^1)-Asp-Pro-Glu-Thr-Gly-Glu-Cys(&^2)-Leu-Pro-βAla-Arg10-NH2][&^1(naphthalene)2,3-diyldimethylene&^2]}], which IC50 is on record?
The IC50 was 1 to 100 nM.

Which IC50 does the source give for `CCCCCCCCCCCCCCCCCC(=O)N[C@H]1C[C@H]2C(=O)N[C@@H](CCC(N)=O)C(=O)N[C@H]3CSCc4ccccc4CSC[C@H](NC(=O)[C@H](CCC(=O)O)NC(=O)CNC(=O)[C@H]([C@@H](C)O)NC(=O)[C@H](CCC(=O)O)NC(=O)[C@H](CCCNC(=N)N)NC(=O)[C@H](CC(=O)O)NC3=O)C(=O)N[C@@H](CC(C)C)C(=O)N3CCC[C@@H]3C(=O)N2C1` [Example 70, {[&^1Pro((4S)-NH-Stearyl)-Gln-Cys(&^2)-Asp-Arg-Glu-Thr-Gly-Glu-Cys(&^3)-Leu-D-Pro&^1][&^2(1,2-phenylenediyl)dimethylene&^2]}] (cyclo(CDRETGECL[dP][X1](Stearoyl)Q); linker 1-8 via oXylylene) here?
The IC50 was under 1 nM.

`CC(C)C[C@H](NC(=O)[C@@H]1CSCc2ccccc2CSC[C@H](NC(=O)[C@H](CCC(N)=O)NC(=O)[C@@H](N)CC(C)C)C(=O)N[C@@H](CC(=O)O)C(=O)N[C@@H](Cc2ccc(F)cc2)C(=O)N[C@@H](CCC(=O)O)C(=O)N[C@@H]([C@@H](C)O)C(=O)NCC(=O)N[C@@H](CCC(=O)O)C(=O)N1)C(=O)N1CCC[C@H]1C(=O)NCCC(=O)N[C@@H](CCCNC(=N)N)C(=O)N[C@@H](CCCCN)C(=O)N[C@@H](CCCCN)C(=O)N[C@@H](CCCNC(=N)N)C(=O)N[C@@H](CCCNC(=N)N)C(=O)N[C@@H](CCC(N)=O)C(=O)N[C@@H](CCCNC(=N)N)C(=O)N[C@@H](CCCNC(=N)N)C(=O)N[C@@H](CCCNC(=N)N)C(N)=O` [Example 71] was tested. Which IC50 did it give?
Its IC50 is 1 to 100 nM.

Which IC50 does the source give for `CCCCCCCCCCCCCCCCCC(=O)N[C@H]1C[C@H]2C(=O)N[C@@H](CCC(N)=O)C(=O)N[C@H]3CSCc4ccccc4CSC[C@H](NC(=O)[C@H](CCC(=O)O)NC(=O)CNC(=O)[C@H]([C@@H](C)O)NC(=O)[C@H](CCC(=O)O)NC(=O)[C@@H]4CSCN4C(=O)[C@H](CC(=O)O)NC3=O)C(=O)N[C@@H](CC(C)C)C(=O)N3CCC[C@@H]3C(=O)N2C1` [Example 78, {[&^1Pro((4S)-NH-Stearyl)-Gln-Cys(&^2)-Asp-Thz-Glu-Thr-Gly-Glu-Cys(&^3)-Leu-D-Pro&^1][&^2(1,2-phenylenediyl)dimethylene&^3]}] here?
The IC50 was under 1 nM.
